Experimental data: patent US20220162561A1, “COMPOSITION FOR PROMOTING SECRETION OF EXTRACELLULAR VESICLES” (priority 2019, published 2022)

Legend:
[1] = tested on: 293 cells; assay: Test Example 12: cytotoxicity, LDH activity in culture supernatant; assay type: cell-based; settings: concentration of at least about 0.3 μM or less
Description: (§4) After stirring 10 mL of deactivated FBS and 2 mL of a 50% (w/v %) Poly(ethylene glycol) 10,000 solution (#81280 available from Sigma-Aldrich Co., LLC) at 4° C. for 2 hours, extracellular vesicles were precipitated under the centrifugation conditions of 1,500×g at 4° C. for 30 minutes, and the supernatant was recovered to prepare Exosome-free FBS. Next, 293 cells (CRL-1573TM available from ATCC) or 293T cells (CRL-3216TM available from ATCC) were suspended in Advanced DMEM (#12491015 available from Thermo Fisher Scientific K.K.) containing 2% (v/v %) Exosome-free FBS with 2×10^4 cells/200 μL, seeded on an adhesive surface 96-well plate (#3595 manufactured by Corning Inc.), and pre-culture for 24 hours was carried out. […] The activity of lactate dehydrogenase (LDH) contained in the culture supernatant was measured using
(§5) Cytotoxicity LDH Assay Kit-WST (#CK12 manufactured by Dojindo Laboratories). […] The reaction was stopped by adding 25 μL of Stop Solution, and the cytotoxicity was evaluated by measuring the absorbance at 490 nm. The activities of LDH of the dead cell group (sample to which 20 μL of Lysis Buffer was added to compound-untreated cells 15 minutes before recovery of the culture solution) and the culture solution (culture solution in which no cell culture was carried out) were also measured in the same manner, and cytotoxicity of each compound was evaluated.

[2] = tested on: U-87 MG cells; assay: Test Example 1: promotion of secretion of extracellular vesicles, Tim4-CD9 / Tim4-CD63 ELISA of culture supernatant; assay type: cell-based; settings: 24 hours
Description: For the detection of extracellular vesicles contained in the culture supernatant, the Tim4-CD63 ELISA method or Tim4-CD9 ELISA method mentioned later was used.
To a 384-well plate (#464718 manufactured by Thermo Fisher Scientific K.K.) was added 1 μg/mL Tim4 protein prepared in Carbonate Buffer (a solution containing 71.4 mM NaHCO3 and 28.6 mM Na2CO3), and it was made a solid phase. The 384-well plate was washed with a 0.05% (v/v %) Tween 20-containing TBS (Tris-Buffer Saline) solution (hereinafter sometimes referred to as “TBST solution”), and then, 50 μL/well of a TBST solution containing 1% (w/v %) BSA was added thereto to carry out a blocking treatment for 1 hour. Next, 30 μL of the culture supernatant recovered above was added to the well, and further 10 μL of an 8 mM CaCl2) solution was added thereto to bind extracellular vesicles to the Tim4 protein. At this time, as a comparative object, a compound-untreated culture supernatant (solvent alone, control) was added to the Tim4 protein solid-phased plate in the same manner. Subsequently, 30 μL/well of 1 μg/mL Anti-human CD63 Antibody (#353014 available from BioLegend Inc.) diluted with a TBST solution containing 2 mM CaCl2) was added thereto and the mixture was reacted for 1 hour. To the mixture was added 50 μL/well of a TBST solution containing 2 mM CaCl2), and then, the TBST solution was removed. After repeating this operation three times, 30 μL/well of 80 ng/mL HRP-conjugated Anti-mouse IgG (#405306 available from BioLegend Inc.) diluted with a TBST solution containing 2 mM CaCl2) was added thereto and the mixture was reacted for 1 hour. Finally, 30 μL/well of a TMB solution (#05298-80 available from Nacalai Tesque Inc.) was added to the mixture and the mixture was reacted for 30 minutes, and then, 30 μL/well of a 1M H2504 solution was added thereto to stop the reaction and by measuring an absorbance at 450 nm to detect the amount of the extracellular vesicles. A relative value when the compound-untreated group (control) was made 1 was calculated. […]

[3] = tested on: 293T cells; assay: Test Example 13: cell proliferation activity, Cell Count Reagent SF; assay type: cell-based
Description: (§1) After 30 minutes, absorbance at 450 nm was measured to evaluate cell proliferation activity.

[4] = tested on: 293 cells; assay: as above; assay type: cell-based
Description: as §1

[5] = tested on: 293T cells; assay: Test Examples 10 and 11: promotion of secretion of extracellular vesicles, Tim4-CD63 / Tim4-CD81 ELISA and nanoparticle tracking analysis; assay type: cell-based; settings: final concentration 0 to 1 μM, 24 hours
Description: (§2) After stirring 10 mL of deactivated FBS and 2 mL of a 50% (w/v %) Poly(ethylene glycol) 10,000 solution (#81280 available from Sigma-Aldrich Co., LLC) at 4° C. for 2 hours, extracellular vesicles were precipitated under the centrifugation conditions of 1,500×g at 4° C. for 30 minutes, and the supernatant was recovered to prepare Exosome-free FBS. Next, 293 cells (CRL-1573TM available from ATCC) or 293T cells (CRL-3216TM available from ATCC) were suspended in Advanced DMEM (#12491015 available from Thermo Fisher Scientific K.K.) containing 2% (v/v %) Exosome-free FBS with 2×10^4 cells/200 μL, seeded on an adhesive surface 96-well plate (#3595 manufactured by Corning Inc.) and pre-culture was carried out for 24 hours. After 24 hours, the culture solution was removed, a mixed solution of 199.5 μL of 2% (v/v %) Exosome-free FBS-containing Advanced DMEM and 0.5 μL (final concentration: 0 to 1 μM) of the compound of Example 1, 5 or 9 prepared in DMSO was added thereto, and the cells were cultured for 24 hours. Thereafter, the culture solution was recovered in a 1.5 mL tube, the cells were precipitated under centrifugation conditions of 300×g at 4° C. for 5 minutes, and the culture supernatant was recovered. Subsequently, the recovered culture supernatant was subjected to centrifugation under the conditions of 2,000×g at 4° C. for 20 minutes to precipitate cell fragments, and the supernatant was recovered. Further, the recovered supernatant was subjected to centrifugation under the conditions of 10,000×g at 4° C. for 30 minutes, and the supernatant was recovered. For detection of the extracellular vesicles contained in the supernatant after centrifugation of 10,000×g, Tim4-human CD63 ELISA method and Tim4-human CD81ELISA method mentioned later was used.
(§3) <Tim4-Human CD63 ELISA Method>100 μL/well of 1 μg/mL Tim4 protein prepared in Carbonate Buffer (solution containing 71.4 mM NaHCO3 and 28.6 mM Na2CO3) was added to a 96-well plate (#3801-096 manufactured by IWAKI & CO., LTD.) and made it a solid phase. After washing the 96-well plate with a TBST solution, 200 μL/well of the TBST solution containing 1% (w/v %) BSA was added thereto and a blocking treatment for 1 hour was carried out. Next, 90 μL of the supernatant recovered as mentioned above was added to the well, and 10 μL of a 20 mM CaCl2) solution was further added to bind the extracellular vesicles to the Tim4 protein. Subsequently, 100 μL/well of 1 μg/mL Anti-human CD63 Antibody (#353014 available from BioLegend Inc.) diluted with the TBST solution containing 2 mM CaCl2) was added thereto and the reaction was carried out for 1 hour. 200 μL/well of the TBST solution containing 2 mM CaCl2) was added thereto, and thereafter, the TBST solution was removed. […]

[6] = tested on: 293 cells; assay: as above; assay type: cell-based; settings: final concentration 0 to 1 μM, 24 hours
Description: as §2, §3

[7] = tested on: 293T cells; assay: Test Example 12: cytotoxicity, LDH activity in culture supernatant; assay type: cell-based; settings: concentration of at least about 0.3 μM or less
Description: as §4, §5

[8] = tested on: U-87 MG cells; settings: concentration of at least about 2 μM or less
Description: After stirring 10 mL of deactivated FBS and 2 mL of a 50% (w/v %) Poly(ethylene glycol) 10,000 solution (#81280 available from Sigma-Aldrich Co., LLC) at 4° C. for 2 hours, extracellular vesicles were precipitated under the centrifugation conditions of 1,500×g at 4° C. for 30 minutes, and the supernatant was recovered to prepare Exosome-free FBS.

[9] = concentration of at least about 0.3 μM or less
[10] = concentration of at least about 0.03 μM (30 nM) or less

| Structure (SMILES) | cytotoxicity (LDH amount in the culture supernatant) [1] | secretion of CD9 and/or CD63-positive extracellular vesicles ([2]; 10 μM) | effect on the proliferative activity [3, 9] | effect on the proliferative activity [4, 9] | amount of secretion of CD63 and/or CD81-positive extracellular vesicles [5] | amount of secretion of CD63 and/or CD81-positive extracellular vesicles [6] | cytotoxicity (LDH amount in the culture supernatant) [7] | cytotoxicity to U-87 MG cells (LDH amount in the culture supernatant) [8] | secretion of CD9 and/or CD63-positive extracellular vesicles ([2]; 5 μM) | secretion of CD63-positive extracellular vesicles ([2]; 5 μM) | effect on the proliferative activity [3, 10] | effect on the proliferative activity [4, 10] |
| --- | --- | --- | --- | --- | --- | --- | --- | --- | --- | --- | --- | --- |
| CC(=O)O.Cc1cc2c(C(C)C)c(O)c(O)c(C=O)c2c(O)c1-c1c(C)cc2c(C(C)C)c(O)c(O)c(C=O)c2c1O (racemic) [Example 1, (±)-Gossypol Acetate] | low cytotoxicity | strongly promoted secretion | do not significantly affect | do not significantly affect | promotes | promotes | low cytotoxicity | low |  |  |  |  |
| COC1=CC(c2cc3ccccc3[nH]2)=N/C1=C\c1[nH]c(C)cc1C.CS(=O)(=O)O [Example 5, Obatoclax Mesylate] |  |  |  |  | promotes | promotes |  |  | promotes secretion | strongly promoted secretion | do not significantly affect | do not significantly affect |
